Source: patent publication US20240150286A1, “PEROXISOME PROLIFERATOR-ACTIVATED RECEPTOR GAMMA (PPARy) LIGANDS AND METHODS OF USE AS TREATMENTS FOR INSULIN RESISTANCE, OBESITY, FATTY LIVER DISEASE, AND TYPE 2 DIABETES” (The Board of Regents of the University of Oklahoma, priority 2022, published 2024)

Tests used:
[1] = test system: diet-induced obesity (DIO) mice; assay: TZD-associated side effects in DIO mice (PCV, heart weight, cardiac and bone genes); assay type: in vivo, mouse
Method: C57BL/6J male mice were obtained from Jackson laboratory (Bar Harbor, ME) and maintained on a 12 h light (6:00 AM to 6:00 PM)—12 h dark (6:00 PM to 6:00 AM) cycle at an ambient temperature of 22±1° C. All animals had access to diet and water ad libitum. All procedures involving animals were approved by the Institutional Animal Care and Use Committee of the University of Oklahoma Health Science Center. All experiments were performed with age-matched male mice. The mice were fed a high-fat diet (HFD) (60% kcal fat, Bio-Serv, NJ, USA) starting from the age of 6 weeks until study end. […] Food intake was determined manually by measuring the amount of input food subtracting the amount of the food remaining in the food hopper and the crumbs on the bedding of the cage each day for three days during the 4th week of the treatment. Packed cell volume (PCV) was measured with blood drawn from tail on a LW Scientific E8 centrifuge (LW Scientific, Lawrenceville, Georgia, USA) microhematocrit centrifuge at the end of study. For all other measurements, the blood was drawn at the time of euthanization.
(§1) Total RNA (2 μg) was isolated from tissues or cells using TRIzol reagents (Life Technologies) and reverse transcribed using oligo d(T) primers (New England Biosystems) and SuperScript IV reverse transcription kit (Applied Biosystems). qPCR was performed in a CFX96 Touch Real-Time PCR detection system using SYBR Green mix (Applied Biosystems). The amplification program was as follows: initial denaturation at 95° C. for 15 min, followed by 40 cycles of 95° C. for 15 s, 60° C. for 1 min, and 40° C. for 30 s. Relative mRNA expression was determined by the ΔΔCt method normalized to TBP mRNA.

[2] = test system: PPARγ S273 phosphorylation; assay: PPARγ S273 phosphorylation and phosphorylation-dependent genes in 3T3-L1 differentiated adipocytes; assay type: cell-based, mouse; conditions: 3T3-L1 differentiated adipocytes, TNFα 10 ng/ml 1 h, compounds at 10 μM, Western blot
Method: as §1

PPARγ = target: T1, PPARγ (Homo sapiens, UniProt P37231); conditions: cited from earlier work
T1 sequence (P37231 1-505): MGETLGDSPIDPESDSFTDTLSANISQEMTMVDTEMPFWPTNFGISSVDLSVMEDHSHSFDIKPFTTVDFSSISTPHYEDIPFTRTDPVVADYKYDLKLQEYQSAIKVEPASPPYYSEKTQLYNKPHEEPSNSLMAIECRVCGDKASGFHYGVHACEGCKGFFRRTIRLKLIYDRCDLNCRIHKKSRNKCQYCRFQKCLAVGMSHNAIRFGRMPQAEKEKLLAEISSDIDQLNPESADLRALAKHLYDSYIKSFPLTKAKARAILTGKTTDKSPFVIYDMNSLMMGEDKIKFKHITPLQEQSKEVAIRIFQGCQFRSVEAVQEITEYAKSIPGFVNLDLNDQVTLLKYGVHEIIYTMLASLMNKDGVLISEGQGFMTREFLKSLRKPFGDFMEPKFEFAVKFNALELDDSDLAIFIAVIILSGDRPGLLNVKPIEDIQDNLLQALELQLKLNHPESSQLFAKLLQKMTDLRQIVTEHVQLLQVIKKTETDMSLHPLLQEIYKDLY

human PPARγ2 = target: T2, human PPARγ2 (Homo sapiens, UniProt P37231); assay: PPARγ transactivation reporter assay (3×PPRE-luc) in HEK-293 cells; assay type: cell-based; conditions: HEK293, PPARγ2 + 3×PPRE-luc, relative to Rosi
T2 construct: host or cells: HEK-293
T2 sequence (P37231 1-505): T1 sequence (P37231 1-505)
Method: HEK-293 cells were seeded overnight, co-transfected with plasmids expressing human PPARγ2 and 3×PPRE-luc (both from Addgene) followed by incubation for 16 h, and then re-seeded in a 384-well plate and incubated for 24 h. Compounds were added and then incubated another 24 h. Luciferase activity was analyzed in each well using Bright-Glo Luciferase kit (Promega).

| SMILES | mRNA levels of bone formation genes (Bglap, SPP1, ColA1) ([1]; 4-week treatment) | heart weight ([1]; relative to vehicle) | mRNA levels of Myh7 and Nppb in heart ([1]; vs vehicle) | S273 phosphorylation of PPARγ [2] | PPARγ binding affinity (literature) (PPARγ) | PPARγ phosphorylation at S273 (literature) (PPARγ) | 3×PPRE-luc reporter activity as % of potency of Rosi (human PPARγ2) |
| --- | --- | --- | --- | --- | --- | --- | --- |
| CN(CCOc1ccc(CC2SC(=O)NC2=O)cc1)c1ccccn1 (stereo not shown) [Rosi, rosiglitazone, reference compound] | decreased their expression significantly | significant increase | increased |  |  |  |  |
| Cc1c(C)n(Cc2ccc(-c3ccccc3C(=O)O)cc2)c2ccc(C(=O)NCc3cccnc3)cc12 [UHC1, 4′ -((2,3-Dimethyl-5-(pyridine-3-ylmethylcarboamyl)-1H-indol-1-yl)methyl)biphenyl-2-carboxylic acid, reference compound] |  |  |  | significantly inhibited | poor | inhibit | approximately 45% |
